Measured values reported in article PMC11855827, “High-Throughput Screening of Five Compound Libraries for Anthelmintic Activity and Toxicity Leads to the Discovery of Two Flavonoid Compounds” (International Journal of Molecular Sciences, 2025).
Values joined by “and” are separate entries in the source; they are usually repeats but may differ in a detail not shown here. Equal entries are not always repeated. Where two headings read alike, the source gives them in different places.

Test system: C. elegans
[1] = Table S2, C. elegans SS assay, 110 μM, 0 h, averages of 4 data points
[2] = Table S2, C. elegans SS assay, 110 μM, 24 h, averages of 4 data points

| Compound | Percentage of motility inhibition 0 h [1] [%] | Percentage of motility inhibition 24 h [2] [%] | Percentage of motility inhibition 0 h (110 µM) | Percentage of motility inhibition 24 h (110 µM) |
| --- | --- | --- | --- | --- |
| C/C=C1/CN2CCc3c([nH]c4ccccc34)[C@@H]2C[C@@H]1/C(=C/OC)C(=O)OC [Geissoschizine methyl ether] | 0 | 19 |  |  |
| C=C[C@H]1CN2CC[C@H]1C[C@@H]2[C@@H](O)c1ccnc2ccc(OC)cc12.Cl.O [Quinidine hydrochloride monohydrate] | 40 | 6 |  |  |
| C=C1CC[C@H]2[C@@H](/C=C(\C)C(=O)[C@@]3(O)C[C@H](C)[C@H](O)[C@@H]3[C@@H]1O)C2(C)C [Lathyrol] | 1 | 3 |  |  |
| C=CC/C(=N/OS(=O)(=O)[O-])S[C@@H]1OC(CO)[C@@H](O)C(O)C1O.[K+] (stereo partly shown) [Sinigrin] | 0 | 0 |  |  |
| CN[C@@H]1[C@@H](O[C@H]2O[C@H](CO)[C@@H](N)[C@H](O)[C@H]2O)OC2C[C@@H](N)[C@@H](O[C@H]3[C@H](O)[C@@H](O)[C@H](N)C[C@@H]3N)OC2[C@@H]1O (stereo partly shown) [Apramycin (sulfate)] | 29 | 2 |  |  |
| CC(/C=C/C=C(\C)C(=O)O)=C\C=C\C=C(C)\C=C\C=C(/C)C(=O)O.CNC[C@H](O)[C@@H](O)[C@H](O)[C@H](O)CO.CNC[C@H](O)[C@@H](O)[C@H](O)[C@H](O)CO [Crocetin (meglumine)] | 6 | 10 |  |  |
| CN1CC[C@@]23C=C[C@H](O)C[C@@H]2Oc2c(O)ccc(c23)C1 [O‐Desmethyl Galantha mine] | 4 | 5 |  |  |
| C[C@H](CC(=O)[C@@H]1OC1(C)C)[C@H]1C(=O)C[C@@]2(C)C3=CC[C@H]4C(C)(C)[C@@H](O[C@@H]5OC[C@@H](O)[C@H](O)[C@H]5O)CC[C@@]45C[C@@]35[C@@H](O)C[C@]12C [Cimicifugoside H-1] | 0 | 3 |  |  |
| COc1cc(/C=C/C(=O)[O-])ccc1O.[Na+] [Ferulic acid (sodium)] | 10 | 0 |  |  |
| C=C1CC23CC4[C@@H]5[C@@]6(C)C[C@H](OC(C)=O)C[C@]57C(N4C6)[C@@]2(O)C(OC(C)=O)[C@H]1[C@@H](O)[C@H]37 (stereo partly shown) [Guanfu base A] | 0 | 0 |  |  |
| O=C1N[C@@H](Cc2ccc(O)cc2)C(=O)N2CCC[C@@H]12 [Maculosin] | 0 | 0 |  |  |
| O=C(O)[C@H]1O[C@@H](Oc2cc(O)c3c(=O)cc(-c4ccccc4)oc3c2)[C@H](O)[C@@H](O)[C@@H]1O [Chrysin‐7‐O‐glucuronide] | 0 | 37 |  |  |
| CN1[C@@H]2CC[C@H]1C[C@@H](OC(=O)C(CO)c1ccccc1)C2 (stereo partly shown) [Atropine] |  |  | 3% and 0% | 3% and 8% |
| Hosenkoside C | 0 | 5 |  |  |
| CCN[C@@H]1C[C@H](N)[C@@H](O[C@H]2OC(CN)=CC[C@H]2N)[C@H](O)[C@H]1O[C@H]1OC[C@](C)(O)[C@H](NC)[C@H]1O.CCN[C@@H]1C[C@H](N)[C@@H](O[C@H]2OC(CN)=CC[C@H]2N)[C@H](O)[C@H]1O[C@H]1OC[C@](C)(O)[C@H](NC)[C@H]1O.O=S(=O)(O)O.O=S(=O)(O)O.O=S(=O)(O)O.O=S(=O)(O)O.O=S(=O)(O)O [Netilmicin (sulfate)] | 0 | 1 |  |  |
| CC(=O)OC1CCC2(C)C(CCC3(C)C2CC=C2C4CC(C)(C)CCC4(C)CCC23C)C1(C)C(=O)O (stereo not drawn) [3-O-Acetyl-α-boswellic acid] | 20 | 14 |  |  |
| O=C1C[C@@H](c2ccc(O)cc2)Oc2cc(O)ccc21 [Liquiriti genin] | 44 | 28 |  |  |
| C[C@@H](O)[C@H]1C(=O)N2C(C(=O)[O-])=C(S[C@@H]3CN[C@H](C(=O)Nc4cccc(C(=O)O)c4)C3)[C@H](C)[C@H]12.[Na+] [Ertapenem sodium] | 0 | 0 |  |  |
| CCOC1c2c(ccc3c2OCO3)-c2ccc3cc4c(cc3c2N1C)OCO4 (stereo not shown) [Ethoxysanguinarine] | 0 | 31 |  |  |
| COC(=O)C1=CO[C@@H](C)[C@H]2CN3CC[C@]4(C(=O)Nc5ccccc54)[C@@H]3C[C@H]12 [Mitraphylline] | 0 | 21 |  |  |
| O=C(O)C1=CO[C@@H](O[C@@H]2O[C@H](CO)[C@@H](O)[C@H](O)[C@H]2O)[C@H]2[C@@H]1C=C[C@]2(O)CO [Monotropein] | 0 | 0 |  |  |

| Compound | Percentage of motility inhibition 0 h [1] [%] | Percentage of motility inhibition 24 h [2] [%] | Percentage of motility inhibition 0 h (110 µM) | Percentage of motility inhibition 24 h (110 µM) |
| --- | --- | --- | --- | --- |
| Oc1cc(O)c2c(c1)O[C@H](c1cc(O)c(O)c(O)c1)[C@@H](O)C2 [(+)‐Gallocatechin] | 0 | 12 |  |  |
| C=C[C@H]1[C@H](O[C@@H]2O[C@H](CO)[C@@H](O)[C@H](O)[C@H]2O)OC=C(C(=O)OC)[C@H]1CCOC(=O)c1cc(O)c(O)c(O)c1 [Cornuside] | 0 | 24 |  |  |
| C[C@H]1CCC2N(C1)C[C@H]1C3CC4[C@@H](CC(=O)C5C[C@@H](O)CC[C@@]54C)C3CCC1[C@]2(C)O (stereo partly shown) [Peiminine] | 0 | 19 |  |  |
| C[C@@H]1O[C@@H](O[C@H]2[C@H](O[C@H]3[C@H](O[C@H]4CC[C@@]5(C)[C@@H](CC[C@]6(C)[C@@H]5CC=C5[C@@H]7CC(C)(C)C[C@@H](O)[C@]7(C)CC[C@]56C)[C@@]4(C)CO)O[C@H](C(=O)O)[C@@H](O)[C@@H]3O)O[C@H](CO)[C@H](O)[C@@H]2O)[C@H](O)[C@H](O)[C@H]1O [Soyasaponin Bb] | 0 | 0 |  |  |
| N=C(NCCCCCCNC(=N)NC(=N)Nc1ccc(Cl)cc1)NC(=N)Nc1ccc(Cl)cc1.O=C(O)[C@H](O)[C@@H](O)[C@H](O)[C@H](O)CO.O=C(O)[C@H](O)[C@@H](O)[C@H](O)[C@H](O)CO [Chlorhexidine (digluconate)] | 39 | 46 |  |  |
| COc1ccc2c3c1O[C@H]1C[C@@H](O)C=C[C@@]31CC[N+](C)([O-])C2 (stereo partly shown) [Galanthamine N‐Oxide] | 3 | 4 |  |  |
| Retrorsine | 28 | 9 |  |  |
| Nc1ccc(C(=O)[O-])c(O)c1.O.O.[Na+] | 24 | 6 |  |  |
| C[C@H]1O[C@@H](O[C@@H]2CC[C@@]3(C)[C@@H](CC[C@]4(C)[C@@H]3C=C[C@]35OC[C@@]6(CCC(C)(C)C[C@H]63)[C@@H](O)C[C@]54C)[C@@]2(C)CO)[C@H](O)[C@@H](O)[C@H]1O (stereo in doubt) [Prosaikogenin G] | 2 | 34 |  |  |
| CN1CCC=C(C(=O)O)C1 [Arecaidine] | 16 | 0 |  |  |
| CC(C)=CCC[C@](C)(O[C@@H]1O[C@H](CO[C@@H]2OC[C@@H](O)[C@H](O)[C@H]2O)[C@@H](O)[C@H](O)[C@H]1O)[C@H]1CC[C@]2(C)[C@@H]1[C@H](O)C[C@@H]1[C@@]3(C)CC[C@H](O[C@@H]4O[C@H](CO)[C@@H](O)[C@H](O)[C@H]4O[C@@H]4O[C@H](CO)[C@@H](O)[C@H](O)[C@H]4O[C@@H]4OC[C@@H](O)[C@H](O)[C@H]4O)C(C)(C)[C@@H]3CC[C@]12C [Notoginsenoside Fc] | 0 | 0 |  |  |
| COc1ccc(-c2oc3cc(OC)c(OC)c(O)c3c(=O)c2OC)cc1OC [Artemitin] | 0 | 20 |  |  |
| C[C@H]1CC[C@@H]2N(C1)C[C@H]1[C@@H]3C[C@H]4[C@@H](CC(=O)[C@H]5C[C@@H](O[C@@H]6O[C@H](CO)[C@@H](O)[C@H](O)[C@H]6O)CC[C@@]54C)[C@@H]3CC[C@H]1[C@]2(C)O [Imperialine 3‐β‐D‐glucoside] | 10 | 10 |  |  |
| CC1(C)CC[C@]2(C(=O)O)CC[C@]3(C)C(=CC[C@@H]4[C@@]5(C)CC[C@@H](O)C(C)(C)[C@@H]5CC[C@]43C)[C@@H]2C1 [3-Epioleanolic acid] | 29 | 34 |  |  |
| C=C1C(=O)O[C@@H]2/C=C(\C)[C@@H](OC(C)=O)C/C=C(\COC(C)=O)C[C@@H](OC(=O)/C(C)=C/CO)[C@@H]12 [Eupalinolide A] |  |  | 11% | 38% |
| C=C1[C@@H]2CC[C@H]3[C@]4(C)C[C@H](O[C@H]5O[C@@H](CO)[C@H](OS(=O)(=O)[O-])[C@@H](OS(=O)(=O)[O-])[C@@H]5OC(=O)CC(C)C)C[C@@](C(=O)[O-])(C(=O)O)[C@H]4CC[C@]3(C2)[C@H]1O.[K+].[K+].[K+] [Carboxyatractyloside (tripotassium)] | 23 | 23 |  |  |
| COc1ccc(/C=C/C(=O)c2ccc(OC)cc2)cc1 [4,4'‐Dimetho xychalcone] | 24 | 3 |  |  |
| CC1(C)CC[C@]2(C(=O)O)[C@H](O)C[C@]3(C)C(=CC[C@@H]4[C@@]5(C)C[C@H](O)[C@H](O)C(CO)(CO)[C@@H]5CC[C@]43C)[C@@H]2C1 [Platicodigenin] | 0 | 0 |  |  |
| C=C1C(=O)O[C@@H]2/C=C(\C)[C@@H](OC(C)=O)C/C=C(\COC(C)=O)C[C@@H](OC(=O)/C(C)=C/CO)[C@@H]12 [Eupalinolide B] |  |  | 0% | 0% |
| O=C(O)[C@H]1O[C@@H](Oc2cc(O)c3c(=O)cc(-c4ccc(O)c(O)c4)oc3c2)[C@H](O)[C@@H](O)[C@@H]1O [Luteolin 7‐O‐glucuronide] | 22 | 45 |  |  |
